Laboratory results as given in patent US7368421B2, “Use of dipeptidyl peptidase IV inhibitors in the treatment of multiple sclerosis” (Probiodrug AG, priority 2001, dated 2008).
Entries after “also recorded” stand apart in the source; their conditions may differ. Counter-ions that a name gives are not always drawn. Marks after values point to notes of the source that are not given here. Square brackets hold non-standard residues; d marks the D form. Peptide text beside a SMILES is read from it. pY = N[C@@H](Cc1ccc(OP(=O)(O)O)cc1)C(=O)O

What was measured:
plasma DP IV activity = target: T1, plasma DP IV activity (Rattus norvegicus, UniProt P14740); experiment: DP IV inhibiting activity after intravasal and oral administration to Wistar rats; format: in vivo; conditions: 100 mg/kg; for in vivo DP IV-inhibition at tmax, i.v.: intra-vasal (intra-arterial); for in vivo DP IV-inhibition at tmax, p.o.: oral
T1 construct: from tissue; host or cells: plasma of Wistar rats
T1 sequence (P14740 37-767 limits assumed): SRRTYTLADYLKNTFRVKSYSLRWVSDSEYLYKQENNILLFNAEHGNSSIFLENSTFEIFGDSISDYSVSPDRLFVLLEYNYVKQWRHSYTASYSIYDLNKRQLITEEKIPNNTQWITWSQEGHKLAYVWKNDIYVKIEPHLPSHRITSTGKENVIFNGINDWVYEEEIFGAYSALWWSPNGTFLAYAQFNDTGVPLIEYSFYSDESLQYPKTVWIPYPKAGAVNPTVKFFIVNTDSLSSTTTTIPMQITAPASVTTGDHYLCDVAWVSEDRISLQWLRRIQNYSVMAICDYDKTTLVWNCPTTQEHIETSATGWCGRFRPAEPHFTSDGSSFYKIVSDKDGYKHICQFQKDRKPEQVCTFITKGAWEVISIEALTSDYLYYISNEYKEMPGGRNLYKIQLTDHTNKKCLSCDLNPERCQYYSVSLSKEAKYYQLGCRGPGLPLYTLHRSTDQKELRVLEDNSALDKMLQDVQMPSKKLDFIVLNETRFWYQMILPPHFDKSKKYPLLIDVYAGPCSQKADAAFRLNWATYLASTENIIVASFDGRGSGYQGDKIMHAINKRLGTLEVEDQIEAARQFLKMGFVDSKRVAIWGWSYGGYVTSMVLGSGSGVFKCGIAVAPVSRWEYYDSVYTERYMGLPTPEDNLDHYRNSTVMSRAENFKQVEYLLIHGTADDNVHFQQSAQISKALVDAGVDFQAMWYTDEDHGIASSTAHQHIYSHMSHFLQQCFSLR
Method: Male Wistar rats (Shoe: Wist(Sho)) with a body weight ranging between 250 and 350 g were purchased from Tierzucht Schönwalde (Schönwalde, Germany).
Animals were single-caged under conventional conditions with controlled temperature (22±2° C.) on a 12/12 hours light/dark cycle (light on at 06:00 AM). Standard pelleted chow (ssniff® Soest, Germany) and tap water acidified with HCl were allowed ad libitum.
After ≧one week of adaptation at the housing conditions, catheters were implanted into the carotid artery of Wistar rats under general anaesthesia (i.p. injection of 0.25 ml/kg b.w. Rompun® [2%], BayerVital, Germany and 0.5 ml/kg b.w. Ketamin 10, Atarost GmbH & Co., Twistringen, Germany). The animals were allowed to recover for one week. The catheters were flushed with heparin-saline (100 IU/ml) three times per week. In case of catheter dysfunction, a second catheter was inserted into the contra-lateral carotid artery of the respective rat. After one week of recovery from surgery, this animal was reintegrated into the study. In case of dysfunction of the second catheter, the animal was withdrawn from the study. A new animal was recruited and the experiments were continued in the planned sequence, beginning at least 7 days after catheter implantation.
After overnight fasting, 100 μl samples of heparinised arterial blood were collected at −30, −5, and 0 min. […] In the case of oral administration, an additional volume of 1 ml saline was injected into the arterial catheter. In the case of intra-arterial administration, the catheter was immediately flushed with 30 μl saline and an additional 1 ml of saline was given orally via the feeding tube.
All blood samples were collected into ice cooled Eppendorf tubes (Eppendorf-Netheler-Hinz, Hamburg, Germany) filled with 10 μl 1 M sodium citrate buffer (pH 3.0) for plasma DP IV activity measurement. Eppendorf tubes were centrifuged immediately (12000 rpm for 2 min, Hettich Zentrifuge EBA 12, Tuttlingen; Germany): The plasma fractions were stored on ice until analysis or were frozen at −20° C. until analysis. All plasma samples were labelled with the following data: • Code number • Animal Number • Date of sampling • Time of sampling Analytical Methods
The assay mixture for determination of plasma DP IV activity consisted of 80 μl reagent and 20 μl plasma sample. […] The DP IV activity was expressed in mU/ml.
All parameters were analysed in a descriptive manner including mean and SD.

porcine DP II = target: T2, porcine DP II (Sus scrofa, UniProt A0A5G2QK18); experiment: Inhibition of DP IV-like enzymes, dipeptidyl peptidase II; format: biochemical
T2 construct: The enzyme used was purified from porcine kidney; from tissue; host or cells: porcine kidney
T2 sequence (A0A5G2QK18 28-502): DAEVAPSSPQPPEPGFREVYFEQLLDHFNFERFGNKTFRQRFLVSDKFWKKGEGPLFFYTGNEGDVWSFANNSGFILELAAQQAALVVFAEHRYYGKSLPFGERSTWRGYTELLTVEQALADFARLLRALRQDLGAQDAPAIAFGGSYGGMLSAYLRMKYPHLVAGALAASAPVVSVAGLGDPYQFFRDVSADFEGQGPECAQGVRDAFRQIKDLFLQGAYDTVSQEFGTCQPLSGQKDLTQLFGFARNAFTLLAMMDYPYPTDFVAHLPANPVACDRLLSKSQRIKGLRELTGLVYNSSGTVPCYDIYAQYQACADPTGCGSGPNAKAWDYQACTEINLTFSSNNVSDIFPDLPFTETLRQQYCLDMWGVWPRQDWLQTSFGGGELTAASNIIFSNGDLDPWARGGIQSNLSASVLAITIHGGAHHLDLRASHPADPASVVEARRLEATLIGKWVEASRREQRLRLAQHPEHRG
Method: DP II (3.4.14.2) releases N-terminal dipeptides from oligopeptides if the N-terminus is not protonated (McDonald, J. K., Ellis, S. & Reilly, T. J., 1966, J. Biol. Chem., 241, 1494-1501). Pro and Ala in P1-position are preferred residues. The enzyme activity is described as DP IV-like activity, but DP II has an acidic pH-optimum. The enzyme used was purified from porcine kidney.
100 μl glutaminylpyrrolidine or glutaminylthazolidine in an concentration range of 1*10^−4 M-5*10^−8M were admixed with 100 μl μl buffer solution (40 mM HEPES, pH7.6, 0.015% Brij, 1 mM DTT), 50 μl lysylalanylaminomethylcoumarine solution (5 mM) and 20 μl porcine DP II (250fold diluted in buffer solution). Fluorescence measurement was performed at 30° C. and λexiatation=380 nm, λemission=465 nm for 25 min using a plate reader (HTS7000plus, Applied Biosystems, Weiterstadt, Germany).

[1] = target: T3, Dipeptidyl Peptidase I (DP I, Cathepsin C) (Rattus norvegicus, UniProt P80067); experiment: Cross reacting enzymes: dipeptidyl peptidase I; format: biochemical; conditions: concentration range 1*10^−5M-1*10^−7M
T3 construct: purchased Qiagen GmbH, Hilden, Germany
T3 sequence (P80067 25-462): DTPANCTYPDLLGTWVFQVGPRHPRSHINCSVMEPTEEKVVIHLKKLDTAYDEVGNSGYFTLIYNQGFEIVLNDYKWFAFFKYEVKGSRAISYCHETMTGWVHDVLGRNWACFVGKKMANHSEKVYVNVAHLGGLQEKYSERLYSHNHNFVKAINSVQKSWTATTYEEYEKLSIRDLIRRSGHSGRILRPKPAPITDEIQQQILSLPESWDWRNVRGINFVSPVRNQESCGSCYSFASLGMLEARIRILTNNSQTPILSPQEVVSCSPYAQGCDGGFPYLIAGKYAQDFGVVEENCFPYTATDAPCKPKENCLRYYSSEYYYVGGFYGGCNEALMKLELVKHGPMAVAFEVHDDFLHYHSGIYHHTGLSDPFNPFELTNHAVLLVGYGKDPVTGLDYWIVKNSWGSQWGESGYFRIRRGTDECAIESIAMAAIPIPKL
Method: DP I or cathepsin C is a lysosomal cysteine protease which cleaves off dipeptides from the N-terminus of their substrates (Gutman, H. R. & Fruton, J. S., 1948, J. Biol. Chem., 174, 851-858). It is classified as a cysteine protease. The enzyme used was purchased from Qiagen (Qiagen GmbH, Hilden, Germany). In order to get a fully active enzyme, the enzyme was diluted 1000 fold in MES buffer pH5,6 (40 mM MES, 4 mM DTT, 4 mM KCl, 2 mM EDTA, 0.015% Brij) and pre-incubated for 30 min at 30° C.
50 μl glutaminylpyrrolidine or glutaminylthazolidine in a concentration range of 1*10^−5M-1*10^−7M were admixed with 110 μl buffer-enzyme-mixture. The assay mixture was pre-incubated at 30° C. for 15 min. After pre-incubation, 100 μl, histidylseryl-β-nitroaniline (2*10^−5M) was added and measurement of yellow color development due to β-nitroaniline release was performed at 30° C. and […] for 10 min., using a plate reader (HTS7000 plus, Applied Biosystems, Weiterstadt, Germany).
The IC 50-values were calculated using Graphit 4.0.15 (Erithacus Software, Ltd., UK).

purified porcine DP IV = purified porcine DP IV (Sus scrofa, UniProt P22411); experiment: Determination of IC50 values, DP IV; format: biochemical; conditions: Gly-Pro-pNA 0.4 mM, HEPES pH 7.6, 30° C.
purified porcine DP IV, sequence (P22411 whole entry): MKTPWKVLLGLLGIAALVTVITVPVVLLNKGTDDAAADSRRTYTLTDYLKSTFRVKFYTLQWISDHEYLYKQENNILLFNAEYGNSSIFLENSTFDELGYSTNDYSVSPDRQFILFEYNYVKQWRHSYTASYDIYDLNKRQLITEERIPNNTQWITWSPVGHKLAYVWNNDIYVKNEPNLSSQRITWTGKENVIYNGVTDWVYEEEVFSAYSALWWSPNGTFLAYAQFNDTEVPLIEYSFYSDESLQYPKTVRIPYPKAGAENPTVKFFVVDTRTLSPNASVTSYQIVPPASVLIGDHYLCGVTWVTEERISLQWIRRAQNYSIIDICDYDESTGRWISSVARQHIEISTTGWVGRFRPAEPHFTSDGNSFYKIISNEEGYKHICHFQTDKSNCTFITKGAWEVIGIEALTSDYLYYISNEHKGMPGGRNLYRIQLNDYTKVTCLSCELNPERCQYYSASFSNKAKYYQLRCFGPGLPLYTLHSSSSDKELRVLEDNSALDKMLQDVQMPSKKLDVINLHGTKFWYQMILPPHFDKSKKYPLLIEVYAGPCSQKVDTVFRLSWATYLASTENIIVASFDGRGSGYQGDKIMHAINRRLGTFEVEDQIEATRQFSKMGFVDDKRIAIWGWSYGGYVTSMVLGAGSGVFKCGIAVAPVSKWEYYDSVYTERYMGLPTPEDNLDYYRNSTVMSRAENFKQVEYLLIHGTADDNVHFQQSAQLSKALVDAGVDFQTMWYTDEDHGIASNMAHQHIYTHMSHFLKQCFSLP
Method: 100 μl inhibitor stock solution were mixed with 100 μl buffer (HEPES pH7.6) and 50 μl substrate (Gly-Pro-pNA, final concentration 0.4 mM) and preincubated at 30° C. Reaction was started by addition of 20 μl purified porcine DP IV. Formation of the product pNA was measured at 405 nm over 10 min using the HTS 7000Plus plate reader (Perkin Elmer) and slopes were calculated. The final inhibitor concentrations ranged between 1 mM and 30 nM. For calculation of IC50 GraFit 4.0.13 (Erithacus Software) was used.

EAE = conditions: chronic treatment, female Lewis rats; cited from earlier work
[2] = tested on: experimental autoimmune encephalomyelitis (EAE); experiment: EAE experiment 1: i.p. treatment day 1-15, female Lewis rats; format: in vivo
Method: (§1) For the first experiment female inbred Lewis rats (n=50) with a mean body weight of 190±6 g, were obtained from Charles River (Bad Sulzfeld, Germany). Animals were randomly assigned to the different experimental conditions. Rats were housed four per cage under a 12:12 h light: dark cycle (lights off at 18:00 h) and at constant temperature (24° C.) in a specific pathogen free air-conditioned colony room with food (Altromin lab chow pellets) and tap water available ad lib. The animals underwent routine cage maintenance once a week. All research and animal care procedures were approved by the government of Lower Saxony in Hannover, Germany, and performed in compliance with international animal welfare standards.
Guinea pig MBP (50 μg/rat) was emulsified in Complete Freund's adjuvant (CFA) containing heat-killed Mycobacterium tuberculosis (H37Ra; 225 μg/rat) and injected s.c. at the base of the tail in a total volume of 100 μl (12). CFA (Sigma) and heat-killed Mycobacterium tuberculosis (H37Ra) were purchased from Life Technologies, Inc. (Rockville, Md.). Clinical disease was scored on the following scale: 0.5: partial loss of tail tone; 1.0: complete tail atony; 2.0: hind limb weakness; 2.5: hind limb paralysis of one leg; 3.0: hind limb paralysis of both legs; 3.5: limb paralysis of three legs; 4.0: quadriplegia and moribund status; 5.0: death due to EAE. Experiments were terminated on day 15 post immunization when most of the animals were about 48 h after maximal clinical score. The incidence of adjuvant-induced arthritis was remarkably low (n=0 in the 1st experiment) using the base of the tail as an immunization site. […]
Comparison over time between the clinical course of EAE of the different treatment conditions was conducted using a two factorial analysis of variance (ANOVA) for repeated measures. Sums of clinical scores of EAE, onset and peak of disease were calculated on the basis of the clinical scores per day and analyzed using a one factorial ANOVA and post hoc Fisher's PLSD tests, if appropriate. […]

[3] = tested on: experimental autoimmune encephalomyelitis (EAE); experiment: EAE experiment 2: i.p. treatment day 5-15, male Lewis rats; format: in vivo; set-up: key to Average score / Maximal score: 0.5 = partial tail tone loss … 4 = quadriplegia, 5 = death; Onset of disease (1st day of score > 1): unit not given here; conditions: for Average score / Maximal score / Onset of disease (1st day of score > 1) / Sum of scores: days 5-15 p.i.
Method: as §1, with “second experiment, male” for “first experiment female”, “230±12” for “190±6”, “week.” for “week. All research and animal care procedures were approved by the government of Lower Saxony in Hannover, Germany, and performed in compliance with international animal welfare standards.”
Guinea pig MBP (50 μg/rat) was emulsified in Complete Freund's adjuvant (CFA) containing heat-killed Mycobacterium tuberculosis (H37Ra; 225 μg/rat) and injected s.c. at the base of the tail in a total volume of 100 μl (12). CFA (Sigma) and heat-killed Mycobacterium tuberculosis (H37Ra) were purchased from Life Technologies, Inc. (Rockville, Md.). Clinical disease was scored on the following scale: 0.5: partial loss of tail tone; 1.0: complete tail atony; 2.0: hind limb weakness; 2.5: hind limb paralysis of one leg; 3.0: hind limb paralysis of both legs; 3.5: limb paralysis of three legs; 4.0: quadriplegia and moribund status; 5.0: death due to EAE. Experiments were terminated on day 21 post immunization (p.i.).
The incidence of adjuvant-induced arthritis was remarkably low (n=0 in the 2nd experiment) using the base of the tail as an immunization site. In the second experiment no signs of arthritis were found. […] This time, these animals remained in the analysis, because this finding is probably due to the treatment. In this experiment a phenomenon called “disease dissociation” was observed. In several animals there was a clear tonus of the tail associated with a clear weakness of the hind limbs. The animals were scored maximal, i.e. 2.
Comparison over time between the clinical course of EAE of the different treatment conditions was conducted using a two factorial analysis of variance (ANOVA) for repeated measures. Sums of clinical scores of EAE, onset and peak of disease were calculated on the basis of the clinical scores per day and analyzed using a one factorial ANOVA and post hoc Fisher's PLSD tests, if appropriate. All data are presented as means±SEM.

Br.CC(=O)OCC(=O)[C@@H]1CCCN1C(=O)[C@@H](NC(=O)[C@H](C)N)C(C)C [Ala-Val-Pro-Acyloxymethylketone, H-Ala-Val-Pro-CH2O—C(O)CH3*HBr]
in vivo DP IV-inhibition at tmax, i.v. (plasma DP IV activity): 89%
in vivo DP IV-inhibition at tmax, p.o. (plasma DP IV activity): 86%

Br.CC(C)[C@H](NC(=O)[C@H](C)N)C(=O)N1CCC[C@H]1C(=O)COC(=O)c1ccccc1 [Ala-Val-Pro-Benzoyl-methylketone, H-Ala-Val-Pro-CH2O—C(O)Ph*HBr]
in vivo DP IV-inhibition at tmax, i.v. (plasma DP IV activity): 97%
in vivo DP IV-inhibition at tmax, p.o. (plasma DP IV activity): 76%

NC(=O)CCC(N)C(=O)N1CCCC1 (stereo not shown) [Gln-Pyrr, glutaminyl pyrrolidine]
type of inhibition of porcine DP II (porcine DP II): non-competitive type inhibitors
inhibition of DP I enzyme activity [1]: no inhibition

NC(=O)CCC(N)C(=O)N1CCSC1 (stereo not shown) [Gln-Thia, glutaminyl thiazolidine]
IC50 (purified porcine DP IV): 5.27 µM

CN(C)CCCN1c2ccccc2CCc2ccccc21 [Imipramine]
severity of acute MBP-induced EAE (EAE): reduce the severity

CC[C@H](C)[C@H](NC(=O)[C@@H]1CCCN1C(=O)[C@@H](N)Cc1ccc(OP(=O)(O)O)cc1)C(=O)O [Tyr(P)-Pro-Ile] (H-[pY]-Pro-Ile-OH; N-terminus assumed)
in vivo DP IV-inhibition at tmax, p.o. (plasma DP IV activity): no inhibition

CC[C@H](C)[C@H](N)C(=O)N1CCSC1 [isoleucyl thiazolidine fumarate]
effect on clinical score of EAE, days 11 and 12 p.i. ([2]; 1 mg dosage i.p. daily from day 1, female Lewis rats, fumarate): significant disease-aggravating effect; also recorded: disease-aggravating effects
effect on clinical score of EAE, day 15 p.i. ([2]; 10 mg dose i.p. daily from day 1, female Lewis rats, fumarate): significantly reduced clinical score
shortening of the latency until onset of disease ([2]; 10 mg/kg i.p. daily from day 1, female Lewis rats): about 1 day
effect on clinical scores in the second peak (classical acute EAE), days 10-13 ([3]; 1 mg dose i.p.): aggravate the clinical scores
Average score ([3]; 1 mg/kg i.p. daily): 0.96*
Maximal score ([3]; 1 mg/kg i.p. daily): 2.8
Onset of disease (1st day of score > 1) ([3]; 1 mg/kg i.p. daily): 10.3*
Sum of scores ([3]; 1 mg/kg i.p. daily): 14.2*
effect on disease activity after initiation of treatment, days 6-9 ([3]; 3 mg and 10 mg dosages i.p.): induced a significant first peak of disease activity
Average score ([3]; 3 mg/kg i.p. daily): 0.8
Maximal score ([3]; 3 mg/kg i.p. daily): 3.0
Onset of disease (1st day of score > 1) ([3]; 3 mg/kg i.p. daily): 12.0
Sum of scores ([3]; 3 mg/kg i.p. daily): 12.0
Average score ([3]; 10 mg/kg i.p. daily): 0.72
Maximal score ([3]; 10 mg/kg i.p. daily): 2.1
Onset of disease (1st day of score > 1) ([3]; 10 mg/kg i.p. daily): 12.1
Sum of scores ([3]; 10 mg/kg i.p. daily): 10.8
Average score ([3]; 30 mg/kg i.p. daily): 0.37**
Maximal score ([3]; 30 mg/kg i.p. daily): 2.0*
Onset of disease (1st day of score > 1) ([3]; 30 mg/kg i.p. daily): 14.0***
Sum of scores ([3]; 30 mg/kg i.p. daily): 5.6**
effect on clinical scores in the second peak (classical acute EAE), days 10-13 ([3]; 30 mg/kg i.p., fumarate): clearly improved the clinical course; also recorded: significant delaying and ameliorating effects
